Laboratory results from patent US20090163481A1, “PPAR-DELTA LIGANDS AND METHODS OF THEIR USE” (priority 2007, published 2009).
Like-named read-outs stand apart in the source and are kept apart here.

What was measured:
[1] = target: T1, ligand binding domain of PPAR delta (Homo sapiens, UniProt Q03181); experiment: LANTHA SCREEN TR-FRET PPARδ Competitive Binding Assay
T1 construct: purchased Invitrogen
T1 sequence (Q03181 211-439 limits assumed): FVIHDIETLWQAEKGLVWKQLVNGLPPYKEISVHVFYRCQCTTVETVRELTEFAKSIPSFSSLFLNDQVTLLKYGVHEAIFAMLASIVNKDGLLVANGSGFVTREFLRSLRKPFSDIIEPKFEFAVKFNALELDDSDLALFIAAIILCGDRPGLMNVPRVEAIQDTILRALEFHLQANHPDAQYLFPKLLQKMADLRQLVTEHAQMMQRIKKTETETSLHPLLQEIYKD
Method: (§1) The LANTHA SCREEN™ TR-FRET PPARδ Competitive Binding Assay was conducted for a variety of compounds according to the instructions provided by the manufacturer (Invitrogen). In addition, proliferation assays were conducted. In Table 2, “Prolif IC50” is the concentration that inhibits cell viability (or growth) by 50% relative to a vehicle control, and “TR-F binding IC50 (μM)” is the concentration that competes binding by a labeled pan-agonist to the ligand binding domain of PPAR delta, by 50%.

[2] = Proliferation assay of Table 2 (cell line not stated); type: cell-based; details: concentration that inhibits cell viability (or growth) by 50% relative to vehicle control; read-out: Prolif IC50
Method: as §1

LBD of PPARδ protein = target: T2, LBD of PPARδ protein (Homo sapiens, UniProt Q03181); experiment: PPARδ ligand-binding domain (LBD)/Gal4 UAS-tk-luciferase reporter assay in U2-OS cells; type: cell-based; details: from GAL-4 binding and PPRE transactivation reporter screens
T2 construct: co-transfection of a plasmid containing an LBD/Gal4 fusion construct; expressed in transfected cells; host or cells: U2-OS (human bone cancer line)
T2 sequence (Q03181 211-439 limits assumed): T1 sequence (Q03181 211-439 limits assumed)
Method: (§2) General Testing Procedures. Each ligand was screened for PPARδ binding and transactivation activity through the use of two complementary reporter assays as described below. In both systems, transfection efficiency was standardized by co-transfection of a control Renilla luciferase. U2-OS (human bone cancer line) cells were used for both assays because this is the cell line of choice for screening PPAR ligands. At 18 h post-transfection, GW 501, with and without the ligands of the disclosure, was added to the cells and incubated for an additional 24 h. The cells were then harvested and luciferase activities profiled.
A PPARδ protein ligand-binding domain (LBD) assay. The LBD assay consists of cellular co-transfection of a plasmid containing an LBD/Gal4 fusion construct and a vector containing a UAS-tk-luciferase reporter construct under the transcriptional control of a Gal4 upstream activating sequence. This system was used to test for binding activities of candidate PPARδ ligands to the LBD of PPARδ protein.
(§3) Referring to FIG. 3, U2-OS cells were transiently transfected with appropriate expression and reporter vectors. Ligands were added to the cell cultures 24 h post-transfection and incubated for an additional 16 h. Lipoprotein lipase (LPL; 2 μg/ml) was added with VLDL (5 μg/ml) to release PPARδ-active triglycerides. FIG. 3A: PPARδ LBD/Gal4/UAS-tk-luc competition assays with VLDL SR13904 (0-10 μM). The reporter activation (fold increase over blank) is presented relative to GW501516 at 7 nM (fold increase over blank=100). FIG. 3B: PPRE reporter assays using 0, 1, and 10 μM SR13904+VLDL. All assays were repeated in triplicate.

PPARδ = target: T3, PPARδ (Homo sapiens, UniProt Q03181); experiment: PPRE promoter/luciferase reporter (transactivation) assay in U2-OS cells; type: cell-based
T3 construct: expressed in transfected cells; host or cells: U2-OS (human bone cancer line)
T3 sequence (Q03181 1-441): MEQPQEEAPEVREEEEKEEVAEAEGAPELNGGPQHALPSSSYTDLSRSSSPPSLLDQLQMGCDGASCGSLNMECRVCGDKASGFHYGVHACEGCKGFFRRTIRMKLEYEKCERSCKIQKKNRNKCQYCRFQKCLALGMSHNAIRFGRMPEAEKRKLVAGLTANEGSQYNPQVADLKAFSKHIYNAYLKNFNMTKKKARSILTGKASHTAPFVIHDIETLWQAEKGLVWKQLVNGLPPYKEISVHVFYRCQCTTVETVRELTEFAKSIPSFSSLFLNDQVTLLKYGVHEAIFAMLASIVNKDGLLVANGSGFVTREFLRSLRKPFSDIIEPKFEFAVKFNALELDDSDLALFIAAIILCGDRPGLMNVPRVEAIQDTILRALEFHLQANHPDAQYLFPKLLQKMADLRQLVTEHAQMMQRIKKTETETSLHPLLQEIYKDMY
Method: as §2
A promoter/luciferase reporter assay. This assay involves co-transfection of a PPARδ expression vector and a plasmid containing a luciferase gene under the control of PPARδ responsive DNA element (three copies of a consensus PPAR response element, PPRE). This assay was used to directly test ligand effects on PPARδ-responsive genes.
as §3

A549 cells = experiment: Apoptosis, Cell Death Detection ELISA (DNA fragmentation) in A549 cells; type: cell-based, human; details: A549, GW501 1 μM with SR13904 15 μM
Method: Referring now to FIG. 6, SR13904 treatment of cancer cells results in increased apoptosis. A549 cells (2×10^4 cells/well) were incubated in 0.5% media (96 well plates) SR13904 for 40 h. The relative degrees of apoptosis were determined using a Cell Death Detection ELISA (Roche). SR represents SR13904. ***p=<0.001 SR vs. SR+GW501.
SR13904 treatment results in increased apoptosis. Down-regulation of PPARδ, either by genetic knockout or by the treatment with 13-S—HODE (15-lipoxygenase-1 product), induces apoptosis in colorectal cancer cells. The effects of SR13904 (15 μM) GW501 (1 μM) on survival of A549 cells (0.5% serum) was determined. Relative degrees of apoptosis were measured using a DNA fragmentation assay.

[3] = Solubility in DMSO (noted in binding assay column); type: physicochemical
[4] = competes binding by a labeled pan-agonist by 50%, * = determined by approximation from a semi log graph, read-out: TR-F binding IC50

| IC50 [1, 4] | SMILES | IC50 [2] | further results |
| --- | --- | --- | --- |
| > 20 µM | Cc1cc(SCCC(=O)N(Cc2ccccc2)C(c2ccccc2)c2ccccc2)ccc1OCC(=O)O [SRI-010261] | 8.5 µM |  |
| 0.85 µM | Cc1cc(SCCOC(c2ccc(F)cc2)c2ccc(F)cc2)ccc1OCC(=O)O [SRI-010249] | 5.4 µM | IC50 ([1]; repeat determination of TR-F binding IC50, read-out: repeat TR-F): 1.2 µM |
|  | Cc1cc(SCc2sc(-c3ccc(C(C)(C)C)cc3)nc2C)ccc1OCC(=O)O [SR 13906] |  | PPARδ ligand profile (agonist/antagonist) (LBD of PPARδ protein): low-affinity agonists; inhibition of PPARδ-mediated transactivation (PPARδ): appear to inhibit |
| > 30 µM | Cc1cc(SCCC(=O)NC(c2ccccc2)c2ccccc2)ccc1OCC(=O)O [SRI-010266] | > 40 µM |  |
| > 30 µM | Cc1cc(SCCOC2c3ccccc3-c3ccccc32)ccc1OCC(=O)O [SRI-010248] | 9 µM |  |
|  | Cc1cc(SCc2sc(-c3ccc(C(F)(F)F)cc3)nc2C)ccc1OCC(=O)O [GW 501516, reference compound] |  | effect of co-treatment on SR13904-induced apoptosis (A549 cells): markedly alleviated |
| > 25 µM | Cc1cc(SCCC(=O)N(Cc2ccc(Cl)cc2Cl)C(c2ccccc2)c2ccccc2)ccc1OCC(=O)O [SRI-010264] | 5.9 µM |  |
| > 25 µM | Cc1cc(SCCC(=O)N(Cc2ccc(F)c(F)c2)C(c2ccccc2)c2ccccc2)ccc1OCC(=O)O [SRI-010263] | 9.1 µM |  |
| 3.8 µM | Cc1cc(SCCN2c3ccccc3Sc3ccc(C(F)(F)F)cc32)ccc1OCC(=O)O [SRI-010250] | 7 µM |  |
| > 12 µM | Cc1cc(SCC(=O)N(Cc2ccccc2)C(c2ccccc2)c2ccccc2)ccc1OCC(=O)O [SRI-010255] | 5 µM |  |
|  | CCCc1cc(SCc2sc(-c3ccc(CC)cc3)nc2C)ccc1OCC(N)=O [SR 13910] |  | PPARδ ligand profile (agonist/antagonist) (LBD of PPARδ protein): low-affinity agonists |
| > 30 µM | COc1ccc(CN(C(=O)CCSc2ccc(OCC(=O)O)c(C)c2)C(c2ccccc2)c2ccccc2)cc1OC [SRI-010265] | > 40 µM |  |
|  | CCCc1cc(SCc2sc(-c3cccc4ccccc34)nc2C)ccc1OCC(=O)O [SR 13905] |  | inhibition of PPARδ-mediated transactivation (PPARδ): appear to inhibit |
|  | Cc1cc(SCc2sc(-c3ccc4ccccc4c3)nc2C)ccc1OCC(=O)O [SR 13961] |  | PPARδ ligand profile (agonist/antagonist) (LBD of PPARδ protein): low-affinity agonists |
| > 18 µM | Cc1cc(SCCC(=O)N(Cc2ccc(Cl)cc2)C(c2ccccc2)c2ccccc2)ccc1OCC(=O)O [SRI-010262] | 5.6 µM |  |
| > 30 µM | Cc1cc(SCCn2c3ccccc3c3ccccc32)ccc1OCC(=O)O [SRI-010252] | 9 µM |  |
|  | Cc1cc(SCC(=O)NC(c2ccccc2)c2ccccc2)ccc1OCC(=O)O [SRI-010260] | > 40 µM | solubility in DMSO [3]: not soluble in DMSO |
| > 18 µM | Cc1cc(SCC(=O)N(Cc2ccc(Cl)cc2)C(c2ccccc2)c2ccccc2)ccc1OCC(=O)O [SRI-010256] |  |  |
| > 14 µM | Cc1cc(SCC(=O)N(Cc2ccc(Cl)cc2Cl)C(c2ccccc2)c2ccccc2)ccc1OCC(=O)O [SRI-010258] | 4.8 µM |  |
| > 23 µM | Cc1cc(SCC(=O)N(Cc2ccc(F)c(F)c2)C(c2ccccc2)c2ccccc2)ccc1OCC(=O)O [SRI-010257] | 9.1 µM |  |
|  | CCCc1cc(SCc2sc(-c3ccc(C(C)(C)C)cc3)nc2C)ccc1OCC(=O)O [SR 13907] |  | PPARδ ligand profile (agonist/antagonist) (LBD of PPARδ protein): low-affinity agonists; inhibition of PPARδ-mediated transactivation (PPARδ): appear to inhibit |
| > 30 µM | COc1ccc(CN(C(=O)CSc2ccc(OCC(=O)O)c(C)c2)C(c2ccccc2)c2ccccc2)cc1OC [SRI-010259] | > 40 µM |  |
| 1.3 µM | Cc1cc(SCCOC(c2ccccc2)c2ccc(C(F)(F)F)cc2)ccc1OCC(=O)O (stereo not shown) [SRI-010254] | 7.4 µM |  |
| 13.7 µM | Cc1cc(SCCN2c3ccccc3Sc3ccccc32)ccc1OCC(=O)O [SRI-010251] | 7.6 µM |  |
| 3 µM | Cc1cc(SCCOC(c2ccccc2)c2ccccc2)ccc1OCC(=O)O [SRI-010253] | 14 µM |  |
